Data as given in patent publication US8552002B2 (Novartis AG, priority 2004, dated 2013).
pIC50: −log10 of the molar value.

Experiments:
TrkB = target: T1, TrkB (Homo sapiens, UniProt Q16620); experiment: Upstate KinaseProfiler radio-enzymatic filter binding assay; type: biochemical; details: read-out: percentage inhibition of TrkB
T1 construct: purchased Upstate (KinaseProfiler panel)
Procedure: (§1) Compounds of the invention are assessed for their ability to inhibit individual members of a panel of kinases (a partial, non-limiting list of kinases includes: Abl, BCR-Abl, BMX, FGFR35, Lck, JNK1, JNK2, CSK, RAF, MKK6 and P38). The compounds are tested in duplicates at a final concentration of 10 μM following this generic protocol. Note that the kinase buffer composition and the substrates vary for the different kinases included in the “Upstate KinaseProfiler™” panel. Kinase buffer (2.5 μL, 10×—containing MnCl2 when required), active kinase (0.001-0.01 Units; 2.5 μL), specific or Poly(Glu4-Tyr) peptide (5-500 μM or 0.01 mg/ml) in kinase buffer and kinase buffer (50 μM; 5 μL) are mixed in an eppendorf on ice. A Mg/ATP mix (10 μL; 67.5 (or 33.75) mM MgCl2, 450 (or 225) μM ATP and 1 μCi/μl [γ-^32P]-ATP (3000 Ci/mmol)) is added and the reaction is incubated at about 30° C. for about 10 minutes. The reaction mixture is spotted (20 μL) onto a 2 cm×2 cm P81 (phosphocellulose, for positively charged peptide substrates) or Whatman No. 1 (for Poly (Glu4-Tyr) peptide substrate) paper square. The assay squares are washed 4 times, for 5 minutes each, with 0.75% phosphoric acid and washed once with acetone for 5 minutes. The assay squares are transferred to a scintillation vial, 5 ml scintillation cocktail are added and ^32P incorporation (cpm) to the peptide substrate is quantified with a Beckman scintillation counter. Percentage inhibition is calculated for each reaction.

c-SRC = target: T2, c-SRC (Homo sapiens, UniProt P12931); experiment: as above; type: biochemical; details: read-out: percentage inhibition of c-SRC
T2 construct: purchased Upstate (KinaseProfiler panel)
Procedure: as §1

p70S6K = target: T3, p70S6K (Homo sapiens, UniProt P23443); experiment: as above; type: biochemical; details: read-out: percentage inhibition of p70S6K
T3 construct: purchased Upstate (KinaseProfiler panel)
Procedure: as §1

SAPK2α = target: T4, SAPK2α (Homo sapiens, UniProt Q16539); experiment: as above; type: biochemical; details: read-out: percentage inhibition of SAPK2α
T4 construct: purchased Upstate (KinaseProfiler panel)
Procedure: as §1

MKK6 = target: T5, MKK6 (Homo sapiens, UniProt P52564); experiment: as above; type: biochemical; details: read-out: percentage inhibition of MKK6
T5 construct: purchased Upstate (KinaseProfiler panel)
Procedure: as §1

JNK2α2 = target: T6, JNK2α2 (Homo sapiens, UniProt P45984); experiment: as above; type: biochemical; details: read-out: percentage inhibition of JNK2α2
T6 construct: purchased Upstate (KinaseProfiler panel)
Procedure: as §1

wild-type Abl = target: T7, wild-type Abl (Homo sapiens, UniProt P00519); experiment: as above; type: biochemical; details: read-out: percentage inhibition of wild-type Abl
T7 construct: purchased Upstate (KinaseProfiler panel)
Procedure: as §1

ROS = target: T8, ROS (Homo sapiens, UniProt P08922); experiment: as above; type: biochemical; details: read-out: percentage inhibition of ROS
T8 construct: purchased Upstate (KinaseProfiler panel)
Procedure: as §1

CSK = target: T9, CSK (Homo sapiens, UniProt P41240); experiment: as above; type: biochemical; details: read-out: percentage inhibition of CSK
T9 construct: purchased Upstate (KinaseProfiler panel)
Procedure: as §1

lck = target: T10, lck (Homo sapiens, UniProt P06239); experiment: as above; type: biochemical; details: read-out: percentage inhibition of lck
T10 construct: purchased Upstate (KinaseProfiler panel)
Procedure: as §1

SAPK2β = target: T11, SAPK2β (Homo sapiens, UniProt Q15759); experiment: as above; type: biochemical; details: read-out: percentage inhibition of SAPK2β
T11 construct: purchased Upstate (KinaseProfiler panel)
Procedure: as §1

Tie2 = target: T12, Tie2 (Homo sapiens, UniProt Q02763); experiment: as above; type: biochemical; details: read-out: percentage inhibition of Tie2
T12 construct: purchased Upstate (KinaseProfiler panel)
Procedure: as §1

c-RAF = target: T13, c-RAF (Homo sapiens, UniProt P04049); experiment: as above; type: biochemical; details: read-out: percentage inhibition of c-RAF
T13 construct: purchased Upstate (KinaseProfiler panel)
Procedure: as §1

wild type Bcr-abl = target: T14, wild type Bcr-abl (Homo sapiens, UniProt P00519); experiment: Antiproliferative effect on cells expressing wild type Bcr-abl; type: cell-based; details: cell proliferation
T14 construct: the major C-terminal part (exons 2-11) of the c-abl gene; expressed in transfected cells; host or cells: murine 32D (32D-p210) or Ba/F3 cells; the other entry of the earlier key: BCR (P11274, Breakpoint cluster region protein)
Procedure: 32D-p210 cells are plated into 96 well TC plates at a density of 15,000 cells per well. 50 μL of two fold serial dilutions of the test compound (Cmax is 40 μM) are added to each well (STI571 is included as a positive control). After incubating the cells for 48 hours at 37° C., 5% CO2, 15 μL of MTT (Promega) is added to each well and the cells are incubated for an additional 5 hours. The optical density at 570 nm is quantified spectrophotometrically and IC50 values, the concentration of compound required for 50% inhibition, determined from a dose response curve.
Compounds of the invention are tested for their antiproliferative effect on Ba/F3 cells expressing either wild type or the mutant forms of BCR-Abl (G250E, E255V, T315I, F317L, M351T) that confers resistance or diminished sensitivity to STI571. The antiproliferative effect of these compounds on the mutant-BCR-Abl expressing cells and on the non transformed cells were tested at 10, 3.3, 1.1 and 0.37 μM as described above (in media lacking IL3). The IC50 values of the compounds lacking toxicity on the untransformed cells were determined from the dose response curves obtained as describe above.

T11 sequence (Q15759 whole entry): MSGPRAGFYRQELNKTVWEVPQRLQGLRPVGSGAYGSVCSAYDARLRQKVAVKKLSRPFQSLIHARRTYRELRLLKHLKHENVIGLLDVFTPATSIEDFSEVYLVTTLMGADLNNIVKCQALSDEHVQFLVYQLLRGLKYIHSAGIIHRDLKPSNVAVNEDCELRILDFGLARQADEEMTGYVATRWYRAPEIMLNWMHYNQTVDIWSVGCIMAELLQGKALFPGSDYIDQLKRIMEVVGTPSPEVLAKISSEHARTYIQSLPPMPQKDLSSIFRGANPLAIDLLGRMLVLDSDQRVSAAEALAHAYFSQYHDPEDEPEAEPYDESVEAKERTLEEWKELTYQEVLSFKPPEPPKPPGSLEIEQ
T6 sequence (P45984 whole entry): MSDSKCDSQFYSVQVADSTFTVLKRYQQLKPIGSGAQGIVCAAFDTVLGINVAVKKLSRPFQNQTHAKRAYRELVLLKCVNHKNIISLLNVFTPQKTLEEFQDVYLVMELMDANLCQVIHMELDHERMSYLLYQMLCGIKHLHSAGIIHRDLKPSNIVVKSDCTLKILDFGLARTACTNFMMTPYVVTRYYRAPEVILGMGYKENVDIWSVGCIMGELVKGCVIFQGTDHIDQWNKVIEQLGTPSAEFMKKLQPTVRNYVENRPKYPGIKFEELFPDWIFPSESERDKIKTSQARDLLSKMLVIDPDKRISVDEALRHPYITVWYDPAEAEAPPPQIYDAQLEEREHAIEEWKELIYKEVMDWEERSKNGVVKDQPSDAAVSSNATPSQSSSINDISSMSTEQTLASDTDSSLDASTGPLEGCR
T14 sequence (P00519 with tags, fused parts or gaps): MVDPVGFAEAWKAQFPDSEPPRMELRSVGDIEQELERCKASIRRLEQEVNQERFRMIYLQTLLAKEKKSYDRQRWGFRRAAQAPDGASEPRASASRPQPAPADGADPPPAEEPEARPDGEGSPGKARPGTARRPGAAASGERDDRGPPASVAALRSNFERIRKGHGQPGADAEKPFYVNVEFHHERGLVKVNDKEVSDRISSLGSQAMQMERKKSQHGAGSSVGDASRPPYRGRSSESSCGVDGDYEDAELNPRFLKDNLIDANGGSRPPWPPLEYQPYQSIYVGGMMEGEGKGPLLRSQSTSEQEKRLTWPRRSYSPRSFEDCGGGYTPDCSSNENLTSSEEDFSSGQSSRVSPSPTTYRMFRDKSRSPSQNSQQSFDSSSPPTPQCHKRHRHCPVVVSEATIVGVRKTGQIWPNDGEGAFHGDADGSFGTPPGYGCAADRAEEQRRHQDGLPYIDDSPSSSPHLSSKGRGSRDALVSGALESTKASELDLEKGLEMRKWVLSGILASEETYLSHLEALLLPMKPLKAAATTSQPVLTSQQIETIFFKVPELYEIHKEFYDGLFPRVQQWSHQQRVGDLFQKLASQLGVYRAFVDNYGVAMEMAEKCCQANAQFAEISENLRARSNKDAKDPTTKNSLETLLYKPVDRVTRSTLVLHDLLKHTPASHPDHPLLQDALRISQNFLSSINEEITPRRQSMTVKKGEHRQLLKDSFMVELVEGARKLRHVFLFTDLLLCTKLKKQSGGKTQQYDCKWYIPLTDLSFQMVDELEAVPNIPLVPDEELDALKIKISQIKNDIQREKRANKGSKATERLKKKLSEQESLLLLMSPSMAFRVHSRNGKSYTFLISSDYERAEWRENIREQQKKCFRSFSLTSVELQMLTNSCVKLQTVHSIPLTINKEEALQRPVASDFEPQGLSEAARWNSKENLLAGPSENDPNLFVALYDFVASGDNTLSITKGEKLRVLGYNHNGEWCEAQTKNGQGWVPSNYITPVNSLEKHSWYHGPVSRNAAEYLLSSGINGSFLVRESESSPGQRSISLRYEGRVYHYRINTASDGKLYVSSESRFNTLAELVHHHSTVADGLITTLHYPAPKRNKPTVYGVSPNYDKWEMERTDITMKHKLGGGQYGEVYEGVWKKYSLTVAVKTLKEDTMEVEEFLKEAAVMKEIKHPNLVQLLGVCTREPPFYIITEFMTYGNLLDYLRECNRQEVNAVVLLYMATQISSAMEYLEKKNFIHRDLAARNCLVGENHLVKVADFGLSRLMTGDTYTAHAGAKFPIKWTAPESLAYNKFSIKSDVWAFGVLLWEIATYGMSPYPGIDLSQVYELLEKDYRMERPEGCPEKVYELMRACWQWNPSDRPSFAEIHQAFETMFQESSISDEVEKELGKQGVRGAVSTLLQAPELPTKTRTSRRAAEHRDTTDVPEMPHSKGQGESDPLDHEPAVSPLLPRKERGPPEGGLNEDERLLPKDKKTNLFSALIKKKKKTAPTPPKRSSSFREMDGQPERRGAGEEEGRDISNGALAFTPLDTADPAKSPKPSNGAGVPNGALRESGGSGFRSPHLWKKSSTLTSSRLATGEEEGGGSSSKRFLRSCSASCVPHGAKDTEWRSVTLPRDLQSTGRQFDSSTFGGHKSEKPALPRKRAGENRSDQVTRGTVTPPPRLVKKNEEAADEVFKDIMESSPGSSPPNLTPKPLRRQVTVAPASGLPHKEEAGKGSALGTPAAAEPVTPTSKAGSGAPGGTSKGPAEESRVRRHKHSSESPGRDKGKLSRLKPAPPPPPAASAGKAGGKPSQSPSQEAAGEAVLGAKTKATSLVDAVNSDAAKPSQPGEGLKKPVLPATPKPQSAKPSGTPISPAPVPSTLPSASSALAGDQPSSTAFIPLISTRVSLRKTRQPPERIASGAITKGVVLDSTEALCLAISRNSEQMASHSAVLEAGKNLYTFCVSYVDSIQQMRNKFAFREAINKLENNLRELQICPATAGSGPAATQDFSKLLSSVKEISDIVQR
T4 sequence (Q16539 whole entry): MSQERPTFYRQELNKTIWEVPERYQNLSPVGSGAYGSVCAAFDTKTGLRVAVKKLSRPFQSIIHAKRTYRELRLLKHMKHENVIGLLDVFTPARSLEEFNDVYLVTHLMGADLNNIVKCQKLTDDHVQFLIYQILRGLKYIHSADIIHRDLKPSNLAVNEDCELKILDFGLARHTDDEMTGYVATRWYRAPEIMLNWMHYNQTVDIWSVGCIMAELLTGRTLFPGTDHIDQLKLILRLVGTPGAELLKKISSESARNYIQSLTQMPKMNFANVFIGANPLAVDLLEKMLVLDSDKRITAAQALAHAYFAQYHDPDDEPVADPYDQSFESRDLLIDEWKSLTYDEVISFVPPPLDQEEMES
T1 sequence (Q16620 32-822): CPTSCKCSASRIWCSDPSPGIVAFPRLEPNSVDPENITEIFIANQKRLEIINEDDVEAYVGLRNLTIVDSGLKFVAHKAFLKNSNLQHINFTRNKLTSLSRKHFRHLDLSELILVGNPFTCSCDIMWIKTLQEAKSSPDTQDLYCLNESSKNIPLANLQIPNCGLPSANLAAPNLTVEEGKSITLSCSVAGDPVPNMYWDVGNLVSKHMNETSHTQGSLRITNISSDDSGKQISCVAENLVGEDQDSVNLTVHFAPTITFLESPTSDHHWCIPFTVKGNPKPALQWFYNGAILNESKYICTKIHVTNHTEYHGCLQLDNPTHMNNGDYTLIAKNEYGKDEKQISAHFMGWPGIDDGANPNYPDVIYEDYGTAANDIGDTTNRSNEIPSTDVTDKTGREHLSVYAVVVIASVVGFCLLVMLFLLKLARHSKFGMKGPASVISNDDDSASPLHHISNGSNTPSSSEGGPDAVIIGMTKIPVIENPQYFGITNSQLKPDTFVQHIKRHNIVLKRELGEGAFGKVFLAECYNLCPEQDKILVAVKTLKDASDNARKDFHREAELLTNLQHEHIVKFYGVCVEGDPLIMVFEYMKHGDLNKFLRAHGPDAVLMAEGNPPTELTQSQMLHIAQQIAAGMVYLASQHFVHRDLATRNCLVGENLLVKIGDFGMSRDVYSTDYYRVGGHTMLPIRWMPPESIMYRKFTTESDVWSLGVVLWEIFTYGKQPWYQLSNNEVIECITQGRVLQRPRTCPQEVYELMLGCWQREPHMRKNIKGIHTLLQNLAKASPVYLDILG
T7 sequence (P00519 whole entry, species assumed): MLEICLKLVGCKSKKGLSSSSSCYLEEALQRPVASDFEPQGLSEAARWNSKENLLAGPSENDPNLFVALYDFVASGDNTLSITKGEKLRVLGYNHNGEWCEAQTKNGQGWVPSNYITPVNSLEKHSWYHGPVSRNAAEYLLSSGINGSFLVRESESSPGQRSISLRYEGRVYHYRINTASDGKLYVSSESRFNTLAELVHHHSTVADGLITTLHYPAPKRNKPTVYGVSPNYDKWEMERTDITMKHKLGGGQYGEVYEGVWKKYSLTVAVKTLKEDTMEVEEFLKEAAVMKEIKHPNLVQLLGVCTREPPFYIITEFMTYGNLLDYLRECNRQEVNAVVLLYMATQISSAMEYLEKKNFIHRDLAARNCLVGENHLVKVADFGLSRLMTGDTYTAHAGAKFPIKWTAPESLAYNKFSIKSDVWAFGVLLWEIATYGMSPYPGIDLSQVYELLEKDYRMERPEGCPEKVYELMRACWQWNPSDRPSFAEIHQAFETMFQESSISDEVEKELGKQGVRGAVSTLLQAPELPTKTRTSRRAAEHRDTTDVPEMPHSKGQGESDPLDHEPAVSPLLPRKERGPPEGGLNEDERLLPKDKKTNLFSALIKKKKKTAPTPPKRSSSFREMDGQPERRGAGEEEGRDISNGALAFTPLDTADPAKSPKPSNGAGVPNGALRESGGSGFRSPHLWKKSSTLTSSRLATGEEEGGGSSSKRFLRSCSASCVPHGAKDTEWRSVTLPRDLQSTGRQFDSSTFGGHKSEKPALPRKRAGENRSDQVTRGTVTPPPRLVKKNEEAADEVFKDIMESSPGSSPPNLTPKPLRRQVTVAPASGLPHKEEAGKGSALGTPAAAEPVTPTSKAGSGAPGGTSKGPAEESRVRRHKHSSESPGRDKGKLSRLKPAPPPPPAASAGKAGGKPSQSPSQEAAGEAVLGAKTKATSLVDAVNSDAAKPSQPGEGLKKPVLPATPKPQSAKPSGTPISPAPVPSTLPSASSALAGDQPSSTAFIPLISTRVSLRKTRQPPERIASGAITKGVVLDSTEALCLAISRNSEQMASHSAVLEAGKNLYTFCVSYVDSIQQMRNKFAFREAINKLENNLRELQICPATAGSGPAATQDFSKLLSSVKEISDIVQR

- inhibition at 10 µM (TrkB): 99%
- inhibition at 10 µM (c-SRC): 100%
- inhibition at 10 µM (p70S6K): 81%
- inhibition at 10 µM (SAPK2α): 99%
- inhibition at 10 µM (MKK6): 88%
- inhibition at 10 µM (JNK2α2): 93%
- inhibition at 10 µM (wild-type Abl): 99%
- inhibition at 10 µM (ROS): 95%
- inhibition at 10 µM (CSK): 97%
- inhibition at 10 µM (lck): 100%
- inhibition at 10 µM (SAPK2β): 99%
- inhibition at 10 µM (Tie2): 100%
- inhibition at 10 µM (c-RAF): 99%
- pIC50 (wild type Bcr-abl): 8.00
SMILES: Cc1ccc(NC(=O)c2cccc(C(F)(F)F)c2)cc1NC(=O)N(CCCN1CCCC1=O)c1cc(N)ncn1 [Example 215, N-(3-{3-(6-Amino-pyrimidin-4-yl)-3-[3-(2-oxo-pyrrolidin-1-yl)-propyl]-ureido}-4-methyl-phenyl)-3-trifluoromethyl-benzamide]
